Source: US7892789B2, “Method of increasing cell permeability to trehalose by recombinantly producing a trehalose transporter” (priority 2007, dated 2011)

Assays:
AmTRET1 = biological target: T1, AmTRET1 (Apis mellifera ligustica, UniProt A9ZSY2); test: Trehalose uptake in Xenopus oocytes expressing AmTRET1; type: cell-based; settings: 105 mM of trehalose, 3 h
T1 construct: ORF of either Tret1, DmTret1, AmTret1, AgTret1 or BmTret1 cDNA was amplified with PCR; expressed in transfected cells; host or cells: Xenopus laevis oocytes injected with cRNA
T1 sequence (A9ZSY2 1-502): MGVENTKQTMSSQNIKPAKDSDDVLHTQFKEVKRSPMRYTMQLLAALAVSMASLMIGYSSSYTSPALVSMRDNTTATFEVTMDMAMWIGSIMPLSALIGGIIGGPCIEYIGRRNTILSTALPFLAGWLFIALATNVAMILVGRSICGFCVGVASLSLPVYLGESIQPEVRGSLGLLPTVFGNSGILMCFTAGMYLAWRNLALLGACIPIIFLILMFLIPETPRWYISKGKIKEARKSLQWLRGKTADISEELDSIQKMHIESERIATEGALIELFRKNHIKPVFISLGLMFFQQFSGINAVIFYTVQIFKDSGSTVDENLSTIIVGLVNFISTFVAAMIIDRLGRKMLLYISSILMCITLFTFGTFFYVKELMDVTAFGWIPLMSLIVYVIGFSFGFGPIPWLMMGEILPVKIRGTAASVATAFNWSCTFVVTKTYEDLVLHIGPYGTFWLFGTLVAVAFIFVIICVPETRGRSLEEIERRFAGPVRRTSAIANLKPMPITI
Text: (§1) The capped RNA (cRNA) expression vector pTRET1-XbG-ev1 series was constructed as follows: ORF of either Tret1, DmTret1, AmTret1, AgTret1 or BmTret1 cDNA was amplified with PCR using specific primers containing Bgl II site at the 5′-end on each primer, respectively. The PCR products were digested with the restriction enzymes, and cloned into the site of Bgl II in pXbG-ev1 (Preston, G. M., et al. (1992) Science 256, 385-387). ORF of hGLUT1 cDNA was obtained by digestion of pSPMM1 with BamH I, and then subcloned into the site of Bgl II in pXbG-2. Template DNAs for cRNA synthesis were amplified from the corresponding cRNA expression vectors with a high fidelity DNA polymerase, KOD—Plus—, (TOYOBO). The cRNAs were synthesized with mMESSAGE mMACHINE T7 Kit (Ambion), and then purified with RNeasy MiniElute Cleanup kit (Qiagen).
All uptake assays for zero-trans trehalose and/or other sugars were performed using Xenopus oocytes expressing TRET1 at 15° C. in MBS containing appropriate concentrations of sugars. Sugar concentrations were determined using HPLC (Watanabe, M., et al. (2002) J Exp Biol 205, 2799-2802). All assays were carried out in triplicate. […] (data not shown).
Likewise, whether these Tret1-orthologs have trehalose transport activity was examined using the Xenopus oocyte expression system incubated in 105 mM of trehalose for 3 h.

[1] = Degradation of trehalose in extracts of mammalian cells; type: in vitro ADME; settings: extracts of CHO-K1, HuH-7, NIH3T3 cells, 3 h at 37° C., data not shown
TRET1 = biological target: T2, TRET1 (Polypedilum vanderplanki, UniProt A5LGM7); type: cell-based
T2 construct: ORF of either Tret1, DmTret1, AmTret1, AgTret1 or BmTret1 cDNA was amplified with PCR; expressed in transfected cells; host or cells: Xenopus laevis oocytes injected with cRNA
T2 sequence (A5LGM7 1-504): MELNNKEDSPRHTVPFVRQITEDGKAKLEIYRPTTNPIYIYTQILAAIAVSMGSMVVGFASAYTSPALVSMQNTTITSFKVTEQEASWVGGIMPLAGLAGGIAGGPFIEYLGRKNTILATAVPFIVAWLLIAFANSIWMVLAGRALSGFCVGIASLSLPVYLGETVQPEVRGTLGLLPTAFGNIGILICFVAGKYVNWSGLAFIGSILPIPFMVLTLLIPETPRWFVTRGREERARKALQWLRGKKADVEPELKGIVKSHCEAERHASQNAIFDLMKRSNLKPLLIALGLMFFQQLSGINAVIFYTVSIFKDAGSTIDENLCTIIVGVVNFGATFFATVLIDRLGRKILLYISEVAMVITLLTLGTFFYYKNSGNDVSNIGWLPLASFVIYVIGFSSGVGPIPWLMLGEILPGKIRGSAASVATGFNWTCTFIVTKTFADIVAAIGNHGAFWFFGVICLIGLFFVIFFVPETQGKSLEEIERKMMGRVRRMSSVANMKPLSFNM
Text: as §1
Stage V or VI oocytes were extirpated from X. laevis females, and digested ovarian lobes with 0.2% (w/v) collagenase, type II (Sigma-Aldrich) in Ca^2+-free modified Barth's saline (MBS; 88.0 mM NaCl, 1.0 mM KCl, 2.4 mM NaHCO3, 15.0 mM Tris-Cl, 0.82 mM MgSO4, […] penicillin and streptomycin, pH7.6) at 15° C. for 3 h. The oocytes were microinjected with 40 nl of either 1 ng/nl of the TRET1::AcGFP1 or AcGFP1 cRNA, or nuclease-free water (Invitrogen) as a negative control. In order to express TRET1, the oocytes were incubated in MBS (containing 0.41 mM CaCl2) for 3-4 days after injection at 15° C. Fluorescence images of the oocytes injected with the cRNA were observed and analyzed with a fluorescence microscope BZ-8000 (KEYENCE).
All uptake assays for zero-trans trehalose and/or other sugars were performed using Xenopus oocytes expressing TRET1 at 15° C. in MBS containing appropriate concentrations of sugars. Sugar concentrations were determined using HPLC (Watanabe, M., et al. (2002) J Exp Biol 205, 2799-2802). All assays were carried out in triplicate.
Xenopus oocytes expressing either TRET1 or hGLUT1 were incubated in 105 mM of various sugars for 3 h. Tre: trehalose; Mal: maltose; Suc: sucrose; Lac: lactose; MAG: methyl-a-glucopyranoside; and 2-DOG: 2-deoxy-glucose (FIG. 3B).
In General, transporters contain two sub-classes: facilitated transporters and secondary active transporters. Activities of secondary active transporters are dependent on the electrochemical membrane potential resulting from the distribution of ions such as H^+. For example, proton-dependent MAL11/AGT1 can act only under acidic extracellular conditions (Stambuk, B. U., et al. (1996) Eur J Biochem 237, 876-881). On the other hand, facilitated transporters function independently of the electrochemical membrane potential. Xenopus oocytes expressing TRET1 were incubated in 105 mM trehalose at pH 4.2 and 7.6 for 3 h.
Xenopus oocytes expressing TRET1 were incubated in 105 mM trehalose with either control buffer (Mock; 0.1% acetone), or buffer containing various concentrations of nigericin (Na^+, K^+-ionophore), valinomycin (K^+-ionophore) or CCCP (H^+-ionophore, uncoupler) for 3 h.
In general, facilitated transporters enable their substrates to flow across membranes down concentration gradients. Xenopus oocytes expressing TRET1 were first incubated in 105 mM trehalose for 3 h, and then transferred into trehalose-free buffer and trehalose content was examined over time.
Xenopus oocytes expressing TRET1 were incubated in various concentrations of trehalose for 15 min. Uptake data were fitted to the Michaelis-Menten and Eadie-Hofstee (inset of FIG. 9) equations.

OC[C@H]1O[C@H](O[C@H]2O[C@H](CO)[C@@H](O)[C@H](O)[C@H]2O)[C@H](O)[C@@H](O)[C@@H]1O [trehalose]
trehalose transport activity (AmTRET1): showed trehalose transport activity
degradation of trehalose [1]: No degradation
time course of trehalose uptake into oocytes expressing TRET1 (TRET1; 105 mM trehalose): increased linearly for at least 6 h
direction of trehalose transport after reversal of concentration gradient (TRET1; 105 mM trehalose 3 h, then trehalose-free buffer): shifted from an inward to outward direction
pH-dependency of TRET1 trehalose transport (TRET1; 105 mM trehalose, pH 4.2 and 7.6, 3 h): acted over a wide extracellular pH range
Vmax of TRET1 for trehalose (TRET1; Xenopus oocytes expressing TRET1): 7.84±0.77 nmol/15 min/oocyte
